Measurements from patent US20060293388A1, “Pomolic acid, its isomers, derivatives and their uses, pharmaceutical composition, method to prepare the pharmaceutical composition and method for treating multidrug resistant tumours” (UNIVERSIDADE FEDERAL DO RIO DE JANEIRO, priority 2003, published 2006).

What was measured:
Lucena 1 = test: Growth/survival of Lucena 1 cells under vincristine and efflux pump modulators; type: cell-based
Method: A possible reverser activity of pomolic acid was evaluated by testing its effect over Lucena 1 cell line, that over expresses P glycoprotein (Pgp).

K562 = test: Growth/survival of K562 cells under vincristine and efflux pump modulators; type: cell-based
[1] = tested on: resistant leukaemia cell line Lucena 1; test: Inhibition of cellular proliferation, 3H-thymidine incorporation, Lucena 1; type: cell-based
Method: The values represent the mean±standard error of three independent experiments. […] The values represent the mean±standard error of three independent experiments. The inhibition of cellular proliferation was measured through the incorporation of radioactive thimidine (3H-TdR). For this, 180 μl of the cell suspensions are delivered in wells of a 96 wells culture microtiter plate, 2×10^4 cells/well, followed by incubation in a CO2 incubator, at 37° C. for 24 h. After this period, 20 μl of RPMI (control) or the drug to be tested at the concentrations of 100 μg/ml, 50 μg/ml, 25 μg/ml, 10 μg/ml and 1 μg/ml, are added to each group of four wells. Some wells, to be used as controls, receive 20 μl of DMSO in the same concentrations carried by the drugs. Eight hours before the end of the culture, the plate received a pulse of radioactive thymidine (1 μCi/well) and radioactivity was measured in a β counter. The percentage of inhibition was calculated taking as a reference cell growth in the presence of DMSO. […] The experimental design was the same one as described in example 1.

MA104 cells = test: Cytotoxicity, MTT method, MA104; type: cell-based, monkey; conditions: 1-100 μg/ml, 48 h, FIGS. 7 and 8
Method: Ma104 cells were treated with 1, 5, 10, 25, 50 and 100 μg/ml of pomolic acid for 48 hours. The values represent the mean±standard error of three independent experiments.
(§1) The evaluation of the capacity of pomolic acid, its isomers and derivatives of killing tumor cells will be performed in vitro by the MTT method. The MTT method (3-4,5-dimethylthiazol-2yl)-2,5-diphenyltetrazolium bromide), that is based on the reduction of this compound to Formazam by the enzyme NADH dehydrogenase, Mosmann 1983, allows the quantification of the number of viable cells after treatment. For this, cells from the different cell lines will be processed as described above, distributed into plates and treated with the drug desired concentrations (1, 5, 10, 25, 50 or 100 μg/ml) or DMSO. After 48 h, 20 μl of MTT (5 mg/ml) will be added to each well and the plate will be incubated for a further 4 h in an incubator at 37° C. Following centrifugation, the formazan crystals will be dissolved with DMSO (200 μl/well) and the reading of the absorbance will be made in an ELISA reader at 570 nm wavelength. The percentage of inhibition of cellular viability will be calculated using as reference cells treated with DMSO.
(§2) For this 180 μl of the cell suspension (CaCo-2 or MA104) will be delivered to wells in a 96 wells microtiter plate, 2×10^4 cells/well, and the plate incubated in a CO2 incubator at 37° C. for 24 h. […]

leukaemic cell line K562 = test: Inhibition of cellular proliferation, 3H-thymidine incorporation, K562; type: cell-based; conditions: 1, 10 and 100 μg/ml, 48 hours, FIG. 1, dose-dependent
Method: FIG. 1 describes the inhibition of proliferation of the leukaemic cell line K562 by pomolic acid. […] The values represent the mean±standard error of three independent experiments. The inhibition of cellular proliferation was measured through the incorporation of radioactive thimidine (3H-TdR). For this, 180 μl of the cell suspensions are delivered in wells of a 96 wells culture microtiter plate, 2×10^4 cells/well, followed by incubation in a CO2 incubator, at 37° C. for 24 h. After this period, 20 μl of RPMI (control) or the drug to be tested at the concentrations of 100 μg/ml, 50 μg/ml, 25 μg/ml, 10 μg/ml and 1 μg/ml, are added to each group of four wells. Some wells, to be used as controls, receive 20 μl of DMSO in the same concentrations carried by the drugs. Eight hours before the end of the culture, the plate received a pulse of radioactive thymidine (1 μCi/well) and radioactivity was measured in a β counter. The percentage of inhibition was calculated taking as a reference cell growth in the presence of DMSO.

HEp-2 (throat cancer) = test: Cytotoxicity, HEp-2; type: cell-based
Excerpt: as §1
(§3) Pomolic's acid activity was evaluated on cells sensitive to chemotherapeutic agents, such as leukaemic lines (K562 and HL-60), of lung cancer (A549) and throat (HEp-2), and on multidrug resistant of leukaemic origin (Lucena 1), of colon cancer (CaCo-2) and of monkey kidney (MA104). […]

HL-60 cells = test: Cytotoxicity, MTT method, HL-60; type: cell-based; conditions: 1-100 μg/ml, 48 hours, FIG. 5
Method: HL-60 cells were treated with 1, 5, 10, 25, 50 and 100 μg/ml of pomolic acid for 48 hours. The values represent the mean±standard error of three independent experiments.
as §1

K562 cells = test: DNA fragmentation (apoptosis induction) by propidium iodide flow cytometry; type: cell-based; conditions: 18 h, mean ± SD of 3 experiments
Method: The effect of pomolic acid over DNA fragmentation was studied through the analysis of the cell cycle by flow cytometry. For this 90 μl of cells (2.5×10^5 cells/well) will be distributed in 96 well plates to which it will be added 10 μl of medium, DMSO or the drugs under test (10, 25, 50 and 100 μg/ml). After the defined period of time the cells will be harvested and spun down at 240 g for 5 min. The pellet will be resuspended in 300 μl of a HFS solution (HFS: 0.1% of Triton x-100, 0.1% of sodium citrate and 50 μg/ml of propidium iodide) and incubated at 4° C. for 1 h, in the absence of light. The samples will be read in a flow cytometer (Becton and Dikinson) using the FL2 channel.
The K562 cells were treated with 10, 25, 50 and 100 μg/ml of pomolic acid for 18 h, lysed by HFS treatment (that contains propidium iodide) and DNA fragmentation was measured by FACS (flow cytometry). The values represent the mean±SD of three independent experiments.

A549 (lung cancer) = test: Cytotoxicity, A549; type: cell-based
Excerpt: as §1, §3

CaCo-2 cells = test: Cytotoxicity, MTT method, CaCo-2; type: cell-based; conditions: 1-100 μg/ml, 48 h, FIGS. 6 and 8
Method: Caco-2 cells were treated with 1, 5, 10, 25, 50 and 100 μg/ml of pomolic acid for 48 hours. The values represent the mean±standard error of three independent experiments.
as §1, §2

CC[C@]1(O)C[C@H]2CN(CCc3c([nH]c4ccccc34)[C@@](C(=O)OC)(c3cc4c(cc3OC)N(C=O)[C@H]3[C@@](O)(C(=O)OC)[C@H](OC(C)=O)[C@]5(CC)C=CCN6CC[C@]43[C@@H]65)C2)C1 [VCR, vincristine]
percentage of survival in relation to the untreated control, Lucena (Lucena 1; Table 2, 3.75 nM): 106.6 ± 3.8%
percentage of survival in relation to the untreated control, Lucena (Lucena 1; Table 2, 7.5 nM): 98.4 ± 1.9%
percentage of survival in relation to the untreated control, Lucena (Lucena 1; Table 2, 15 nM): 97.4 ± 6.3%
percentage of survival in relation to the untreated control, Lucena (Lucena 1; Table 2, 30 nM): 99.5 ± 6.5%
percentage of survival in relation to the untreated control, Lucena (Lucena 1; Table 2, 60 nM): 97.8 ± 3.7%
percentage of survival, Lucena (Lucena 1; Table 3, VCR 60 nM): 105.3 ± 7.3%
percentage of survival in relation to the untreated control, K562 (K562; Table 2, 3.75 nM): 76 ± 7.8%
percentage of survival in relation to the untreated control, K562 (K562; Table 2, 7.5 nM): 70.1 ± 11.8%
percentage of survival in relation to the untreated control, K562 (K562; Table 2, 15 nM): 29.7 ± 7.7%
percentage of survival in relation to the untreated control, K562 (K562; Table 2, 30 nM): 10 ± 2.9%
percentage of survival in relation to the untreated control, K562 (K562; Table 2, 60 nM): 4.9 ± 3.1%
percentage of survival, K562 (K562; Table 3, VCR 60 nM): 3.1 ± 1.5%

C[C@@H]1CC[C@]2(C(=O)O)CC[C@]3(C)C(=CC[C@@H]4[C@@]5(C)CC[C@H](O)C(C)(C)[C@@H]5CC[C@]43C)[C@@H]2[C@]1(C)O [pomolic acid]
inhibition of proliferation of Lucena ([1]; 1, 10 and 100 μg/ml, 48 hours, FIGS. 2 and 3, dose-dependent): inhibits
inhibition of Lucena 1 growth in the presence of vincristine ([1]; FIG. 2, 48 hours): inhibits Lucena's 1 growth in the presence of vincristine
killing of Lucena 1 in the absence of vincristine ([1]; FIG. 3, 48 hours): kills Lucena 1 in the absence of vincristine
Pgp substrate ([1]; concluded from activity on Pgp over-expressing Lucena 1 without vincristine): not a Pgp substrate
cytotoxic activity towards MA104 (MA104 cells): shows a cytotoxic activity
inhibition of proliferation of K562 (leukaemic cell line K562): inhibits
cytotoxic activity towards HEp-2 (HEp-2 (throat cancer)): shows a cytotoxic activity
cytotoxic activity towards HL-60 (HL-60 cells): shows a cytotoxic activity
Percentage of DNA fragmentation in K562 cells (K562 cells; 10 μg/ml): 4.31 ± 1.21%
Percentage of DNA fragmentation in K562 cells (K562 cells; 25 μg/ml): 13.72 ± 0.52%
Percentage of DNA fragmentation in K562 cells (K562 cells; 50 μg/ml): 29.93 ± 2.74%
Percentage of DNA fragmentation in K562 cells (K562 cells; 100 μg/ml): 74.88 ± 5.69%
cytotoxic activity towards A549 (A549 (lung cancer)): shows a cytotoxic activity
cytotoxic activity towards CaCo-2 (CaCo-2 cells): shows a cytotoxic activity
